Laboratory results published in patent publication US8710233B2 (Gruenenthal GmbH, priority 2005, dated 2014).
pIC50, pKi: −log10 of the molar value. “And” between values parts separate entries of the source, which are not always exact repeats. Equal entries are not always repeated. Where two headings read alike, the source gives them in different places. One block for each compound: values may come before it.

Experiments:
vanilloid receptor (VR1) [1] = biological target: T1, vanilloid receptor (VR1) (Homo sapiens, UniProt Q8NER1); assay: FLIPR Ca2+ influx assay on CHO K1 cells transfected with the VR1 gene (pharmacological method II); assay type: cell-based; details: for inhibition at 1 µM / inhibition in percent, Ki (human) Cap.: ne = no effect, @ 1 μM
T1 construct: expressed in transfected cells; host or cells: CHO K1 cells (ECACC), stably transfected
T1 sequence (Q8NER1 whole entry): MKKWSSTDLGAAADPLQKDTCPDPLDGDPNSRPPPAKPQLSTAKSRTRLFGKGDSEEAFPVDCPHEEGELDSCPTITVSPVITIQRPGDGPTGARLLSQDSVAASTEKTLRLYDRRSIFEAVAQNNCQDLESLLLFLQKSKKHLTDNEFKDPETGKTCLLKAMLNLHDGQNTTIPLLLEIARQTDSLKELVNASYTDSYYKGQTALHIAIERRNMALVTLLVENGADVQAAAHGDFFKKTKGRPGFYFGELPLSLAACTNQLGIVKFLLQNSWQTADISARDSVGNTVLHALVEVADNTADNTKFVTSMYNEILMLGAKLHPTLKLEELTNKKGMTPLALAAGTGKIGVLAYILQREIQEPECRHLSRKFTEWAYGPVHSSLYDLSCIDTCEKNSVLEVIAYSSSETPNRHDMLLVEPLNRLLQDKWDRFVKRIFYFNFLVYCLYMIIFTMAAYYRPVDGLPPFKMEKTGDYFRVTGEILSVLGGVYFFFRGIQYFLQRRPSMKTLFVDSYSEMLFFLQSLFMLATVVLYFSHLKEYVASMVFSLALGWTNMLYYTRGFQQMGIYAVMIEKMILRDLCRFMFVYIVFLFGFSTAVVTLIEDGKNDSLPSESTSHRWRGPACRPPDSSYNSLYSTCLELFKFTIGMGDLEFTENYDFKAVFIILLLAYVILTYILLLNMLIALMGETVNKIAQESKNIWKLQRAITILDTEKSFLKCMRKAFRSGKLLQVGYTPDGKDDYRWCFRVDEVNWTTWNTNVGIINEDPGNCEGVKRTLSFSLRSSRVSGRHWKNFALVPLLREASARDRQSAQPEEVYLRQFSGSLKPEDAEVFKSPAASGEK

[2] = biological target: T2, vanilloid receptor 1 (VR1/TRPV1) of the rat species (Rattus norvegicus, UniProt O35433); assay: FLIPR Ca2+ influx assay on rat dorsal root ganglia cells (pharmacological method I); assay type: cell-based; details: for inhibition at 1 µM / inhibition in percent, Ki (rat) Cap.: ne = no effect, @ 1 μM
T2 construct: The spinal column is removed from decapitated rats; from tissue; host or cells: primary cells dissociated from rat dorsal root ganglia
T2 sequence (O35433 whole entry): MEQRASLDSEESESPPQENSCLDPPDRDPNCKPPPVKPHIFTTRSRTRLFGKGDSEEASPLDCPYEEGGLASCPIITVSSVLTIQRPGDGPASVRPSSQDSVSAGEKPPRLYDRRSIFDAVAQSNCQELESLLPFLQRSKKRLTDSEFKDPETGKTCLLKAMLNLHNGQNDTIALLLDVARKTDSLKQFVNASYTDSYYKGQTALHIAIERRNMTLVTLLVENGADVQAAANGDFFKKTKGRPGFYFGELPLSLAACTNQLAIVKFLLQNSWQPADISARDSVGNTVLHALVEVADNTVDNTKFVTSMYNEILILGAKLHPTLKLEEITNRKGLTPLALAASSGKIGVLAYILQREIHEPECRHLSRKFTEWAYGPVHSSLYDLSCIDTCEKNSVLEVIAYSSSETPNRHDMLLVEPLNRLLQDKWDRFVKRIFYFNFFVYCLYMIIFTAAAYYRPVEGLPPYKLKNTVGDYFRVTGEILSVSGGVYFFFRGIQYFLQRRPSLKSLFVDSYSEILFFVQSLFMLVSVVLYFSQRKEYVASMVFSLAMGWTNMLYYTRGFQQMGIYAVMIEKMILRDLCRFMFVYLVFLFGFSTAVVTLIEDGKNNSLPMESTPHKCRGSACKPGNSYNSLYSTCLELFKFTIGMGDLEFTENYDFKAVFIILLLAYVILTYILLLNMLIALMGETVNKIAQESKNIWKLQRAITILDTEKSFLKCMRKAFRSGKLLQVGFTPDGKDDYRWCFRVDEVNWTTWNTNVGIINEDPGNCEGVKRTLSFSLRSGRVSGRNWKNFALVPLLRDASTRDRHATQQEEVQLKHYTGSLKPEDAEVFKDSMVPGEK
Method in brief: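 Primary rat dorsal root ganglion cells loaded with 2 μM Fluo-4, Ca2+ influx read on FLIPR as peak fluorescence. Triplicates, at least 3 independent experiments.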

vanilloid receptor (VR1) [3] = biological target: T1, vanilloid receptor (VR1); assay: FLIPR Ca2+ influx assay on CHO K1 cells transfected with the VR1 gene (pharmacological method II); assay type: cell-based
VR1/TRPV1 receptor = VR1/TRPV1 receptor (Homo sapiens, UniProt Q8NER1); assay: IC50 (human) after pH stimulus; assay type: cell-based
VR1/TRPV1 receptor, sequence (Q8NER1 whole entry): as the sequence (Q8NER1 whole entry) above

[4] = system: cold allodynia after chronic constriction injury; assay: Neuropathic pain in mice, Bennet model (chronic constriction injury, cold allodynia); assay type: in vivo; details: mouse
Source text: VI. Neuropathic Pain in Mice
The efficacy of compounds of general formula I in the treatment of neuropathic pain is investigated by using the Bennet modell (chronic constriction injury; Bennett and Xie, 1988, Pain 33: 87-107.
NMRI mice (weight 16 to 18 g) under ketavet-rompun anaesthesia are supplied with three loose ligatures of the right nervus ischiaticus. The animals develop an oversensitivity to cold at the position of the pad that is innervated by the injured nerve which—after a recovery period of one week—is quantified over a period of three weeks by using a metal plate that is cooled to 4° C. (cold allodynia). The animals are observed for a period of 2 minutes on this plate and the number of brisk withdrawal reactions of the injured nerve is counted. […] The group size is n=10, the stastical significance of efficacy against allodynia (*=p<0.05) is determined by analysis of variance with repeated measurements and post hoc analysis with Bonferroni adjustment.

[5] = system: capsaicin induced hypothermie; assay: Hypothermie assay in the mouse (capsaicin induced hypothermie); assay type: in vivo; details: 0.3 mg/kg body weight po; mouse; read-out: inhibition hypothermie (n = 5)
[6] = system: formaldehyde induced nociceptive behaviour; assay: Formaldehyde test in mice, second (late) phase; assay type: in vivo, mouse; details: 0.3 mg/kg body weight po; mouse; read-out: inhibition formaldehyde test (n = 10)
[7] = CHO-K1, read-out: inhibition in percent, Ki (human) Cap.
[8] = read-out: inhibition in percent, Ki (rat) Cap.
[9] = Table 2, displacement of capsaicin (100 nM), Cheng-Prusoff, read-out: Ki (rat)
[10] = Table 2, displacement of capsaicin (100 nM), Cheng-Prusoff, read-out: Ki (human)
[11] = @ 10 μM, read-out: inhibition in percent, IC50 (human) after pH stimulus
[12] = table 4, capsaicin, read-out: Ki (human) Cap.
[13] = table 4, capsaicin, read-out: Ki (rat) Cap.
[14] = read-out: inhibition in percent, IC50 (human) after pH stimulus

inhibition at 1 µM (vanilloid receptor (VR1) [1]; [7]): 20% | inhibition at 1 µM [2, 8]: 1.5%
SMILES: CC(C(=O)NCc1ccc(C(F)(F)F)nc1N1CCC(N2CCCCC2)CC1)c1ccc(NS(C)(=O)=O)c(F)c1 (centres unmarked) [Compound 164]

inhibition at 1 µM (vanilloid receptor (VR1) [1]; [7]): 7.2% | inhibition at 1 µM [2, 8]: 8%
SMILES: CC(C(=O)NCc1ccc(C(F)(F)F)nc1N1CCN(c2ccncc2)CC1)c1ccc(NS(C)(=O)=O)c(F)c1 (centres unmarked) [Compound 176]

inhibition at 1 µM (vanilloid receptor (VR1) [1]; [7]): 7%
SMILES: CC1CCN(c2nc(C(F)(F)F)ccc2CNC(=O)C(C)c2ccc(NS(=O)(=O)C(F)(F)F)c(F)c2)CC1 (centres unmarked) [Compound 312]

inhibition at 1 µM (vanilloid receptor (VR1) [1]; [7]): 12%
SMILES: CC(C(=O)NCc1ccc(C(F)(F)F)nc1N1CCS(=O)(=O)CC1)c1ccc(NS(C)(=O)=O)c(F)c1 (centres unmarked) [Compound 314]

inhibition at 1 µM (vanilloid receptor (VR1) [1]; [7]): 8%
SMILES: CC(C(=O)NCc1ccc(C(F)(F)F)nc1OCC1CCNCC1)c1ccc(NS(C)(=O)=O)c(F)c1 (centres unmarked) [Compound 343]

inhibition at 1 µM (vanilloid receptor (VR1) [1]; [7]): 3%
SMILES: CC(C(=O)NCc1ccc(C(F)(F)F)nc1OC1CCNCC1)c1ccc(NS(C)(=O)=O)c(F)c1 (centres unmarked) [Compound 344]

pKi [2, 9]: 6.16 | melting point: 149 to 152 °C | pKi (vanilloid receptor (VR1) [3]; [10]): 6.41
SMILES: Cc1nc(C(F)(F)F)ccc1CNC(=O)C(C)c1ccc(NS(C)(=O)=O)c(F)c1 (centres unmarked) [Example 1, 2-(3-fluoro-4-(methylsulfonamido)phenyl)-N-((2-methyl-6-(trifluoromethyl)pyridin-3-yl)methyl)propanamide]

pIC50 (VR1/TRPV1 receptor; Table 2): 6.66 | pKi [2, 9]: 8.46 | melting point: 75 to 79 °C | pKi (vanilloid receptor (VR1) [3]; [10]): 9.40
SMILES: CC(C(=O)NCc1ccc(C(F)(F)F)nc1N1CCCCC1)c1ccc(NS(C)(=O)=O)c(F)c1 (centres unmarked) [Example 2, 2-(3-fluoro-4-(methylsulfonamido)phenyl)-N-((2-(piperidin-1-yl)-6-(trifluoromethyl)pyridin-3-yl)methyl)propanamide]

inhibition in percent, Ki (human) Cap. (vanilloid receptor (VR1) [1]): ne @ 1 μM | inhibition at 10 µM (VR1/TRPV1 receptor; [11]): 47% | inhibition in percent, Ki (rat) Cap. [2]: ne @ 1 μM
SMILES: CC(C(=O)NCc1ccc(C(F)(F)F)cc1N)c1ccc(NS(C)(=O)=O)c(F)c1 (centres unmarked) [Example 61, N-(2-amino-4-(trifluoromethyl)benzyl)-2-(3-fluoro-4-(methylsulfonamido)-phenyl)propanamide]

inhibition in percent, Ki (human) Cap. (vanilloid receptor (VR1) [1]): ne @ 1 μM | inhibition in percent, IC50 (human) after pH stimulus (VR1/TRPV1 receptor; @ 1 μM, ne = no effect): ne @ 1 μM | inhibition in percent, Ki (rat) Cap. [2]: ne @ 1 μM
SMILES: CC(C(=O)NCc1ccc(C(F)(F)F)cc1[N+](=O)[O-])c1ccc(NS(C)(=O)=O)c(F)c1 (centres unmarked) [Example 62, 2-(3-fluoro-4-(methylsulfonamido)phenyl)-N-(2-nitro-4-(trifluoromethyl)-benzyl)propanamide]

SMILES: CC(C(=O)NCc1ncc(C(F)(F)F)cc1N1CCCC1)c1ccc(NS(C)(=O)=O)c(F)c1 (centres unmarked) [Example 78, 2-(3-Fluor-4-(methylsulfonamido)phenyl)-N-((3-(pyrrolidin-1-yl)-5-(trifluoromethyl)pyridin-2-yl)methyl)propanamide]
inhibition in percent, Ki (human) Cap. (vanilloid receptor (VR1) [1]): 15% @ 1 μM | inhibition in percent, IC50 (human) after pH stimulus (VR1/TRPV1 receptor; @ 10 μM): 36% @ 10 μM | inhibition in percent, Ki (rat) Cap. [2]: 19% @ 1 μM

SMILES: CCCCCCOc1nc(C(F)(F)F)ccc1CNC(=O)C(C)c1ccc(NS(C)(=O)=O)c(F)c1 (centres unmarked) [Example 91, 2-(3-fluoro-4-methylsulfonamido-phenyl)-N-(2-hexyloxy-6-trifluoromethyl-pyridin-3-ylmethyl)-propionamide]
inhibition Bennet model (n = 10) ([4]; 0.1 mg/kg body weight po): 0.1 po 30% | pIC50 (VR1/TRPV1 receptor; table 4): 7.52 | pKi ([2]; Ki (rat) Cap., table 4, capsaicin): 9.30 | pKi (vanilloid receptor (VR1) [3]; [12]): 9.30

pIC50 (VR1/TRPV1 receptor; table 4): 7.40 | pKi [2, 13]: 9.70 | pKi (vanilloid receptor (VR1) [3]; [12]): 9.70
SMILES: CC(C(=O)NCc1ccc(C(F)(F)F)nc1N1CCC(Cc2ccccc2)CC1)c1ccc(NS(C)(=O)=O)c(F)c1 (centres unmarked) [Example 104, N-(4-benzyl-6′-trifluoromethyl-3,4,5,6-tetrahydro-2H-[1,2′]bipyridinyl-3′-ylmethyl)-2-(3-fluoro-4-methylsulfonamido-phenyl)-propionamide]
inhibition Bennet model (n = 10) ([4]; 0.0001 mg/kg body weight po): 0.0001 po 20%

inhibition at 1 µM (vanilloid receptor (VR1) [1]; [7]): 15% | inhibition in percent, IC50 (human) after pH stimulus (VR1/TRPV1 receptor; @ 10 μM): 64% @ 10 μM | inhibition at 25 µM (VR1/TRPV1 receptor; [14]): 67% | pKi [2, 13]: 7.50 and 6.63 | pKi (vanilloid receptor (VR1) [3]; [12]): 7.41
SMILES: CC(C(=O)NCc1ccc(C(F)(F)F)nc1Nc1ccc(F)cc1)c1ccc(NS(C)(=O)=O)c(F)c1 (centres unmarked) [Example 112, 2-(3-fluoro-4-methylsulfonamido-phenyl)-N-[2-(4-fluoro-phenylamino)-6-trifluoromethyl-pyridin-3-ylmethyl]-propionamide]

inhibition at 25 µM (vanilloid receptor (VR1) [1]; CHO-K1, @ 25 μM, read-out: inhibition in percent, Ki (human) Cap.): 76% | inhibition at 10 µM (VR1/TRPV1 receptor; [11]): 28% | inhibition at 25 µM (VR1/TRPV1 receptor; [14]): 40% | inhibition at 25 µM ([2]; @ 25 μM, read-out: inhibition in percent, Ki (rat) Cap.): 82%
SMILES: CC(C(=O)NCc1ccc(C(F)(F)F)nc1N1CCC(N2CCCC2)CC1)c1ccc(NS(C)(=O)=O)c(F)c1 (centres unmarked) [Example 165, 2-(3-fluoro-4-methylsulfonamido-phenyl)-N-(4-pyrrolidin-1-yl-6′-trifluoromethyl-3,4,5,6-tetrahydro-2H-[1,2′]bipyridinyl-3′-ylmethyl)-propionamide]
inhibition in vivo at 0.3 mg/kg [5]: 41% | inhibition in vivo at 0.3 mg/kg [6]: 29%

inhibition at 1 µM (vanilloid receptor (VR1) [1]; [7]): 38% | inhibition in percent, IC50 (human) after pH stimulus (VR1/TRPV1 receptor; @ 1 μM, ne = no effect): ne @ 1 μM | inhibition at 1 µM [2, 8]: 53%
SMILES: CC(C(=O)NCc1c(CO)cc(C(C)(C)C)nc1OCc1ccccc1)c1ccc(NS(C)(=O)=O)c(F)c1 (centres unmarked) [Example 223, N-(2-benzyloxy-6-tert-butyl-4-hydroxymethyl-pyridin-3-ylmethyl)-2-(3-fluoro-4-methylsulfonamido-phenyl)-propionamide]

inhibition in percent, Ki (human) Cap. (vanilloid receptor (VR1) [1]): ne @ 1 μM | inhibition in percent, IC50 (human) after pH stimulus (VR1/TRPV1 receptor; @ 1 μM, ne = no effect): ne @ 1 μM | inhibition in percent, Ki (rat) Cap. [2]: ne @ 1 μM
SMILES: CC(C(=O)NCc1ccc(C(F)(F)F)nc1N1CCC(O)CC1)c1ccc(NS(C)(=O)=O)c(F)c1 (centres unmarked) [Example 269, 2-(3-fluoro-4-methylsulfonamido-phenyl)-N-(4-hydroxy-6′-trifluoromethyl-3,4,5,6-tetrahydro-2H-[1,2′]bipyridinyl-3′-ylmethyl)-propionamide]

inhibition at 5 µM (vanilloid receptor (VR1) [1]; [7]): 78% | inhibition at 0.1 µM (VR1/TRPV1 receptor; @ 0.1 μM, read-out: inhibition in percent, IC50 (human) after pH stimulus): 11% | inhibition at 1 µM (VR1/TRPV1 receptor; @ 1 μM, ne = no effect, read-out: inhibition in percent, IC50 (human) after pH stimulus): 11% | inhibition at 5 µM (VR1/TRPV1 receptor; [14]): 43%
SMILES: CC(C(=O)NCc1ccc(C(F)(F)F)nc1-c1ccc2[nH]ccc2c1)c1ccc(NS(C)(=O)=O)c(F)c1 (centres unmarked) [Example 276, 2-(3-fluoro-4-methylsulfonamido-phenyl)-N-[2-(1H-indol-5-yl)-6-trifluoromethyl-pyridin-3-ylmethyl]-propionamide]

inhibition at 5 µM (vanilloid receptor (VR1) [1]; [7]): 68% | inhibition in percent, IC50 (human) after pH stimulus (VR1/TRPV1 receptor; @ 1 μM, ne = no effect): ne @ 1 μM
SMILES: CC1CCN(c2nc(C(F)(F)F)ccc2CNC(=O)C(C)c2ccc(NS(=O)(=O)C(F)(F)F)c(F)c2)CC1 (centres unmarked) [Example 312, 2-(3-fluoro-4-trifluoromethylsulfonamido-phenyl)-N-(4-methyl-6′-trifluoromethyl-3,4,5,6-tetrahydro-2H-[1,2′]bipyridinyl-3′-ylmethyl)-propionamide]

inhibition at 5 µM (vanilloid receptor (VR1) [1]; [7]): 46% | inhibition at 5 µM (VR1/TRPV1 receptor; [14]): 14% | inhibition at 10 µM (VR1/TRPV1 receptor; [11]): 31%
SMILES: CC(C(=O)NCc1ccc(C(F)(F)F)nc1N1CCS(=O)(=O)CC1)c1ccc(NS(C)(=O)=O)c(F)c1 (centres unmarked) [Example 314, N-[2-(1,1-dioxo-1l6-thiomorpholin-4-yl)-6-trifluoromethyl-pyridin-3-ylmethyl]-2-(3-fluoro-4-methylsulfonamido-phenyl)-propionamide]

inhibition at 5 µM (vanilloid receptor (VR1) [1]; [7]): 55% | inhibition in percent, IC50 (human) after pH stimulus (VR1/TRPV1 receptor; @ 1 μM, ne = no effect): ne @ 1 μM
SMILES: CC(C(=O)NCc1ccc(C(F)(F)F)nc1OCC1CCNCC1)c1ccc(NS(C)(=O)=O)c(F)c1 (centres unmarked) [Example 343, 2-(3-fluoro-4-methylsulfonamido-phenyl)-N-[2-(piperidin-4-ylmethoxy)-6-trifluoromethyl-pyridin-3-ylmethyl]-propionamide]

inhibition at 5 µM (vanilloid receptor (VR1) [1]; [7]): 34% | inhibition in percent, IC50 (human) after pH stimulus (VR1/TRPV1 receptor; @ 1 μM, ne = no effect): ne @ 1 μM
SMILES: CC(C(=O)NCc1ccc(C(F)(F)F)nc1OC1CCNCC1)c1ccc(NS(C)(=O)=O)c(F)c1 (centres unmarked) [Example 344, 2-(3-fluoro-4-methylsulfonamido-phenyl)-N-[2-(piperidin-4-yloxy)-6-trifluoromethyl-pyridin-3-ylmethyl]-propionamide]
